Holding throughout (type): functional, cell-based
One assay concerns SK-MEL-28. Nature of the assay: Cytotoxicity against human SK-MEL-28 cells.
The test system of a further assay is P388. Nature of the assay: Cytotoxicity against mouse P388 cells.
The subject of the next assay is A549. Nature of the assay: Cytotoxicity against human A549 cells.
The subject of another assay is HT-29. Nature of the assay: Cytotoxicity against human HT-29 cells.

Values after ≈ are worked out from the molar mass of the structure shown.

Usually IC50 stands for the point on the concentration scale where inhibition reaches its midpoint. Read a low IC50 as higher potency. As for `CCCC(=O)O[C@H]1C[C@@H](OC(C)=O)/C(C)=C\[C@@H]2OC(=O)[C@]3(C)O[C@@]23[C@@H](OC(C)=O)[C@H]2[C@@]3(C)O[C@H]3C[C@H](OC(C)=O)[C@]12C` [STECHOLIDE A ACETATE], the IC50 in the assay with SK-MEL-28, with P388, with A549 and in the assay on HT-29 was above 10 µg/mL each time.

Regarding `CC(=O)O[C@H]1C[C@@H]2O[C@]2(C)[C@@H]2[C@H](OC(C)=O)[C@@]34O[C@@]3(C)C(=O)O[C@H]4/C=C(/C)[C@H](OC(C)=O)C[C@H](OC(C)=O)[C@]12C` [STECHOLIDE C ACETATE], the IC50 with SK-MEL-28, with P388, in the assay with A549 and with HT-29 was above 10 µg/mL in each case.

As usually defined, the EC50 is the concentration needed to bring the measured effect to its halfway point. Consider `CC(=O)O[C@H]1CC/C(C)=C\[C@@H]2OC(=O)[C@]3(C)O[C@@]23[C@@H](OC(C)=O)[C@H]2[C@@]3(C)O[C@H]3C[C@H](OC(C)=O)[C@]12C`, for which the half-inhibitory concentration (IC50) with SK-MEL-28, in the assay on A549 and with HT-29 was above 10 µg/mL each time. Also, a half-maximal effect in the assay with P388 (EC50) was put at 1.59 µg/mL (≈ 3.14 µM).

Take `CC(=O)O[C@@H]1[C@H]2C(C)=C[C@@H](O)[C@H](OC(C)=O)[C@]2(C)[C@@H](OC(C)=O)[C@H](OC(C)=O)C/C(C)=C\[C@@H]2OC(=O)[C@]3(C)O[C@@]213` [STECHOLIDE J]: the concentration for half-maximal inhibition (IC50) in the assay with SK-MEL-28, in the assay with P388, in the assay on A549 and with HT-29 was above 10 µg/mL in each case.

In the case of `CC(=O)O[C@@H]1[C@H]2[C@@]3(C)O[C@H]3[C@@H](O)[C@H](OC(C)=O)[C@]2(C)[C@@H](OC(C)=O)[C@H](OC(C)=O)C/C(C)=C\[C@@H]2OC(=O)[C@]3(C)O[C@@]213` [STECHOLIDE L], the IC50 came out at 5 µg/mL (≈ 8.61 µM) with SK-MEL-28, 10 µg/mL (≈ 17.2 µM) in the assay on P388, 2.5 µg/mL (≈ 4.31 µM) in the assay on A549 and 5 µg/mL (≈ 8.61 µM) with HT-29.

With `CC(=O)O[C@H]1C/C(C)=C\[C@@H]2OC(=O)[C@]3(C)O[C@]23[C@@H](OC(C)=O)[C@H]2C(C)=CC[C@H](OC(C)=O)[C@]2(C)[C@H]1OC(C)=O`, the IC50 with SK-MEL-28, with P388, in the assay on A549 and in the assay on HT-29 was above 10 µg/mL throughout.

As to `CC(=O)O[C@H]1C=C[C@@](C)(O)[C@@H]2[C@H](OC(C)=O)[C@@]34O[C@@]3(C)C(=O)O[C@H]4/C=C(/C)CC[C@H](OC(C)=O)[C@@]12C`, the half-inhibitory concentration (IC50) in the assay with SK-MEL-28, in the assay with P388, with A549 and in the assay with HT-29 was above 10 µg/mL in each case.

Regarding `CCCC(=O)O[C@@H]1C/C(C)=C\[C@@H]2OC(=O)[C@]3(C)O[C@]23[C@H](OC(C)=O)[C@H]2C(C)=C[C@@H](O)[C@H](OC(C)=O)[C@]2(C)[C@H]1OC(C)=O` [STECHOLIDE I], the half-inhibitory concentration (IC50) with SK-MEL-28, in the assay on P388, in the assay on A549 and in the assay on HT-29 was above 10 µg/mL each time.

In the case of `CC(=O)O[C@@H]1[C@@H]2O[C@]2(C)[C@@H]2[C@@H](OC(C)=O)[C@]34O[C@@]3(C)C(=O)O[C@H]4/C=C(/C)C[C@@H](OC(C)=O)[C@H](OC(C)=O)[C@@]2(C)[C@H]1OC(C)=O` [STECHOLIDE K], the IC50 in the assay with SK-MEL-28, in the assay on P388, in the assay on A549 and with HT-29 was above 10 µg/mL each time.

The record behind these values is ChEMBL document CHEMBL1150871, “New Briarane Stecholide Diterpenes from the Indonesian Gorgonian Briareum sp” (J Nat Prod, 1998).
